Key:
[1] = molecular target: T1, NKCCl (Rattus norvegicus, UniProt E9PTX9); assay: Whole-cell voltage clamp, reversal potential of currents elicited by local GABA application (Egaba) in CA1 pyramidal cells; format: cell-based; conditions: in the presence of bumetanide, n=6 cells from 8, p=0.005, control −37±2.72 mV
T1 construct: gramicidin perforated patch clamped CA1 pyramidal neuron in an acute hippocampal slice from a P5 rat; from tissue; host or cells: acute hippocampal slices of P3-P6 male Sprague-Dawley rats; CA1 pyramidal neurons
T1 sequence (E9PTX9 1-1203): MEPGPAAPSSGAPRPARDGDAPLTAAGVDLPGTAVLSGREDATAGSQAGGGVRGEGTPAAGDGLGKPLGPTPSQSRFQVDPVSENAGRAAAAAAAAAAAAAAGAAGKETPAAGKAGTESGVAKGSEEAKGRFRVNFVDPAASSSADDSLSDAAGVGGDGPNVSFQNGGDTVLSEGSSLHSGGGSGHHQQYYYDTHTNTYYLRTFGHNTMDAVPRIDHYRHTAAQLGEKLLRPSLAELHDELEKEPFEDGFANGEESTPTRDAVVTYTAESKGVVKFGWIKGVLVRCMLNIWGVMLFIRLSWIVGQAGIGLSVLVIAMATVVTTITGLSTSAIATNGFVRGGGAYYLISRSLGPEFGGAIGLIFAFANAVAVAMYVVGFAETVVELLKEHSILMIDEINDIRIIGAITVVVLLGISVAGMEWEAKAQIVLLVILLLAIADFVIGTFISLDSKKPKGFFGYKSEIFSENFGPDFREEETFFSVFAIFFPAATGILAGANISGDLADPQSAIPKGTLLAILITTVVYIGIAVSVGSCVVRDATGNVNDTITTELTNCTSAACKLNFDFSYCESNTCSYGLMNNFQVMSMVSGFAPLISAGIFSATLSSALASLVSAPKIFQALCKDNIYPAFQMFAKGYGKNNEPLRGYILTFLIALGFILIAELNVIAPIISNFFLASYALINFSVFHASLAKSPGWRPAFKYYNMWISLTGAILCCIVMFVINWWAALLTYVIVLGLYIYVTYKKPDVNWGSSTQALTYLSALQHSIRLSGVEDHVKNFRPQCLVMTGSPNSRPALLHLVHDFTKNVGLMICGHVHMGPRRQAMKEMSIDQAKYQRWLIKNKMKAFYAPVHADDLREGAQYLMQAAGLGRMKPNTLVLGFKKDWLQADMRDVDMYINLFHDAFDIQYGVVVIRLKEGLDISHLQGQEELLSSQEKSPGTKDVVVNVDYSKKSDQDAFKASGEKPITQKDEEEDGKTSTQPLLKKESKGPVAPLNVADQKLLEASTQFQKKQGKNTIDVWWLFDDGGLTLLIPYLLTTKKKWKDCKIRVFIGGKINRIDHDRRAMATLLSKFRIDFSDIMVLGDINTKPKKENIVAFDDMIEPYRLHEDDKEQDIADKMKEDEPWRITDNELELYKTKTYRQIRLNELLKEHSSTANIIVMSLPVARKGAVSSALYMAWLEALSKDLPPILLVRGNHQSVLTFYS
Text: In one example, direct effect of bumetanide on Egaba (excitatory GABAA) can be tested. Here, whole-cell voltage clamp recordings to measure the reversal potential of currents elicited by local application of GABA (10 pM, 10 ms pulse duration) in CA1 pyramidal cells were used.
In one example, electrophysiological recordings are gathered from individual slices and subsequently transferred to a conventional submerged-type chamber and continuously superfused with, for example, oxygenated aCSF. Whole-cell recordings were generated. Patch electrodes were used, made by known methods. For whole-cell recording in voltage-clamp mode pipettes were filled with a buffered solution.

[2] = tested on: hypoxia-induced seizures; assay: Hypoxia-induced seizures in P10 rats; format: in vivo, rat; conditions: hypoxia 15 min, i.p., Bumetanide 0.15 mg/kg 10 min prior, Phenobarbital 15 mg/kg 30 min prior, versus vehicle
Text: Litters of male Long-Evans hooded rats from Charles River Laboratories (Wilmington, Mass., USA) were used in this study. Each litter was divided into five treatment groups: no hypoxia control, hypoxia/DMSO in PBS, hypoxia/Bumetanide only, hypoxia/Phenobarbital only, and hypoxia/combination of Bumetanide and Phenobarbital. One to two litters were used for each run of the experiment, and each litter was housed together until the weaning age of P21.
Rats at P10 (˜18 to 22 grams) were exposed to global hypoxia for 15 minutes in an airtight chamber into which N2 gas was rapidly infused. The oxygen concentration was maintained at 7% for 8 minutes, 5% for 6 minutes, and 4% for 1 minute before termination of hypoxia, during which the animals were immediately removed from the chamber and exposed to room air. For each animal during hypoxia, a record of the total number of myoclonic seizures and the total number and length of time in seconds of tonic clonic seizures were kept. For analysis purposes, time lengths of each tonic clonic seizure for each animal were pooled to obtain total seizure time. […] The body temperature of all animals was maintained at 34-40° C. on a warming blanket; the temperatures of each animal were also recorded before and after submission to hypoxia. […]

[3] = molecular target: T1, NKCCl; assay: Gramicidin perforated patch recording of ECl and Cli in CA1 pyramidal cells of acute hippocampal slices; format: cell-based; conditions: 10 μM bumetanide

- Egaba (reversal potential of currents elicited by local application of GABA) [1]: −40.35+2.73 mV
- holding current [3]: no change
- ECl ([3]; P4-6 CA1 pyramidal cells, n=9, control −67.34±3.78 mV): −80.14±4.61 mV
- lowering of Cli ([3]; n=9, P=0.0006): 37±0.05%
- Cli ([3]; n=9, control 12.00±1.47 mM): 7.62 ± 1.14 mM
SMILES: CCCCNc1cc(C(=O)O)cc(S(N)(=O)=O)c1Oc1ccccc1 [bumetanide, 3-(aminosulfonyl)-5-(butylamino)-4-phenoxybenzoic acid]
- average seizing time [2]: did not significantly reduce

From patent publication US20070043034A1, “Chlorine Ion Uptake Modulators and Uses Thereof” (priority 2005, published 2007)
